Read-outs that look alike come from different tables or passages of the source.

Here are results for six compounds from paper PMC3757248, “Antiestrogen-binding site ligands induce autophagy in myeloma cells that proceeds through alteration of cholesterol metabolism” (Oncotarget, 2013).

The test system of assay [1] is RPMI 8226. Details: method as in earlier work. The conditions noted are these: cited from earlier work.
Assay [2] has as its system LP-1. On the set-up: method as in earlier work. As to conditions: cited from earlier work.
Assay [3] has as its system OPM-2. On the set-up: method as in earlier work. The conditions noted are these: cited from earlier work.
The test system of assay [4] is NCI-H929. On the set-up: method as in earlier work. As to conditions: cited from earlier work.
Assay [5] concerns RPMI 8226 and LP-1 cells. The experiment in a line: Cell viability, MTT assay. The format is cell-based, human. As to conditions: for cell death (viable cells, MTT assay): 1 μM LY 294002, 10 nM everolimus, 10 μM RU 39411, 40 μM PBPE; for sensitivity to dexamethasone (MTT assay): 10 μM dexamethasone 24 h, RU 39411 10 μM for 2 h before. How it is done: RPMI 8226 were obtained from R Bataille (CLCC, Nantes, France) and LP-1 cells from D Bouscary (Institut Cochin, Paris, France). At their arrival, the identity of cells was checked by karyotyping and surface markers expression; cells were then amplified and frozen. HMCLs were maintained in RPMI 1640 medium (Lonza, Basel, Switzerland) supplemented with 2 mM L-glutamine (Lonza) and 10% FCS (fetal calf serum) (PAA Laboratories, Velizy-Villacoublay, France). In experiments with AEs, cells were cultured in phenol red-free medium plus FCS. AEs were dissolved in ethanol (EtOH) to obtain 10 mM stock solution and then diluted into medium immediately before use. For controls, vehicle was added at the same final concentration. Cell viability was determined using CellTiter 96® AQueous One Solution (MTT [([3]-([4],[5])-dimethylthiazol-[2]-yl)-[2],[5]-diphenyltetrazolium bromide] assay, Promega, Charbonnières, France) according to the supplier's instructions.
On the technique in general: Tetrazolium assays rely on reduction of a dye to a coloured formazan, in cell work by metabolically active cells.

Assay [6] deals with LP-1 cells. The experiment in a line: Presence of 5,6-EC in cells by GC/MS. As to conditions: 48 h, 10 μM drug (PBPE 40 μM). The format is cell-based, human. How it is done: (§1) The organic layer was reduced to dryness under a flux of argon and the residue was resuspended in ethanol. Sterols were analyzed by liquid chromatography and gas-liquid chromatography as described before. Neutral lipids and sphingomyelin analyses were done according to previously published procedures.

Assay [7] concerns RPMI 8226 cells. The experiment in a line: Presence of 5,6-EC in cells by GC/MS. The format is cell-based, human. The conditions noted are these: 48 h, 10 μM drug (PBPE 40 μM). Here is the method: as §1
Assay [8] has as its system LP-1 cells. The experiment in a line: Electron microscopy for MLBs, AVs and UVs. The conditions noted are these: 48 h, 10 μM drug (PBPE 40 μM). The format is cell-based, human.
Assay [9] deals with T1, AEBS (Homo sapiens, UniProt Q15125+Q9UBM7). The experiment in a line: Binding to the AEBS in HMCLs. On the set-up: endogenous in cells; host or cells: RPMI 8226 and LP-1 human multiple myeloma cell lines.
T1 sequence (Q15125 whole entry): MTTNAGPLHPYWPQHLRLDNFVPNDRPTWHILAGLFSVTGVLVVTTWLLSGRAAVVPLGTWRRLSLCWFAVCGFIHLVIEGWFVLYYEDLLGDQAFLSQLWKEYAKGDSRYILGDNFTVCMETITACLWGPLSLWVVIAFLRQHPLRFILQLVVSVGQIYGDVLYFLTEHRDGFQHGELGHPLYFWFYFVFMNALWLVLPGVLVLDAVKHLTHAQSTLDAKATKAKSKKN
T1 sequence (Q9UBM7 whole entry): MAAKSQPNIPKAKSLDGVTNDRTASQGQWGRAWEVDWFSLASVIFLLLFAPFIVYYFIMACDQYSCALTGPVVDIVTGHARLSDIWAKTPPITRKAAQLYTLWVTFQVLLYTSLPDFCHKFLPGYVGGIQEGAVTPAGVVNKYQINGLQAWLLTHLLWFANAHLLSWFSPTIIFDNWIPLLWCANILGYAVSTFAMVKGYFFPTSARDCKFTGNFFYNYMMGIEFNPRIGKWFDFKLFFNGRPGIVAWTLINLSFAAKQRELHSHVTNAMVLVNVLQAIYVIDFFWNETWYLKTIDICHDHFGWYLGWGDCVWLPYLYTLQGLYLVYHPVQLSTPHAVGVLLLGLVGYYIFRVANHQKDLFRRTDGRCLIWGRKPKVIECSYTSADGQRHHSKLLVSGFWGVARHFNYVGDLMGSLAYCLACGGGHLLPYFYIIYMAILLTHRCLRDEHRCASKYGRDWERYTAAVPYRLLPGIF
Assay [10] has as its target T2, ChEH (Homo sapiens, UniProt Q15125+Q9UBM7). The experiment in a line: ChEH activity measured on intact cells. The format is cell-based. Details: endogenous in cells; host or cells: RPMI 8226 human multiple myeloma cell lines. As to conditions: RPMI 8226 intact cells, [14C]-5,6-EC 0.6 μM, drugs 1 nM to 10 μM over 24 h; read-out: ChEH IC50. The source says:
(§2) Cells were then pelleted and extracted with chloroform/methanol (2/1). The organic layer was reduced to dryness under a flux of argon and the residue was resuspended in EtOH. Samples were applied to thin layer chromatography (TLC) plates and developed using ethyl acetate as previously described. The radioactive metabolites were visualized by autoradiography using Kodak Biomax MS films.

Assay [11] concerns LP-1 cells. Kind of assay: Sterols accumulated in cells, HPLC and GC/MS. The format is cell-based, human. As to conditions: LP1, 48 h incubation. Here is the method:
as §1

The test system of assay [12] is RPMI 8226 cells. Kind of assay: Sterols accumulated in cells, HPLC and GC/MS. The format is cell-based, human. The conditions noted are these: RPMI 8226, 48 h incubation. Here is the method:
as §1

The target in assay [13] is T1, AEBS. The experiment in a line: Binding to the AEBS in LP1. On the set-up: endogenous in cells; host or cells: LP-1 human multiple myeloma cell lines.
The test system of assay [14] is HMCLs. Kind of assay: Free sterol accumulation in HMCLs. The format is cell-based, human. How it is done: as §1
Assay [15] has as its target T1, AEBS. The experiment in a line: Binding to the AEBS in RPMI 8226.
The target in assay [16] is T2, ChEH. The experiment in a line: ChEH activity measured on intact cells. The format is cell-based. On the set-up: endogenous in cells; host or cells: LP-1 human multiple myeloma cell lines. As to conditions: LP-1 intact cells, [14C]-5,6-EC 0.6 μM, drugs 1 nM to 10 μM over 24 h; read-out: ChEH IC50.
From the text: as §2

For assay [17], the system named is RPMI 8226 cells. The experiment in a line: Electron microscopy for MLBs, AVs and UVs. The conditions noted are these: 48 h, 10 μM drug (PBPE 40 μM). The format is cell-based, human.
Assay [18] deals with T2, ChEH. Kind of assay: ChEH activity in HMCLs (TLC). The format is cell-based. Details: endogenous in cells; host or cells: RPMI 8226 and LP-1 human multiple myeloma cell lines. The conditions noted are these: OHT, Tam, RU 58668 10 μM, PBPE 40 μM.
From the text: as §2

The mark [19] stands for this setting: RPMI 8226, presence of 500 μM Vit E.

T2 sequence (Q15125 whole entry): as the sequence (Q15125 whole entry) above
T2 sequence (Q9UBM7 whole entry): as the sequence (Q9UBM7 whole entry) above

On to `C[C@]12CC[C@@H]3c4ccc(O)cc4C[C@@H](CCCCCCCCC[S+]([O-])CCCC(F)(F)C(F)(F)F)[C@H]3[C@@H]1CC[C@@H]2O` (stereo partly shown) [Fulvestrant], for which the “SERM and SERDs effects on MM cell lines” value in assay [1] was “Apoptosis”; in assay [2] it was “G1-arrest”; in assay [3], “G1-arrest”; in [4], “Apoptosis”.

Take `O=c1cc(N2CCOCC2)oc2c(-c3ccccc3)cccc12` [LY 294002]: the “cell death (viable cells, MTT assay)” value in [5] was “induced cell death”.

With `CN(C)CCOc1ccc([C@H]2C[C@]3(C)[C@@H](O)CC[C@H]3[C@@H]3CCc4cc(O)ccc4[C@H]32)cc1` [RU 39411, 11β-(4-(2-(dimethylamino)-ethoxy)-phenyl)estra-1,3,5(10)-triene-3,17β-diol], the “5,6-EC” value in assay [6] (LP-1, absence of Vit E) is “+”; in [6] (LP-1, presence of 500 μM Vit E) it was “−”; in [7] (RPMI 8226, absence of Vit E), “+”; in [7] (setting [19]), “−”. Besides, the AV entry in assay [8] (LP-1, absence of Vit E) is “+ + (The sign + means that 80 % cells were positive and contained at least 5 vesicles)”; in assay [8] (LP-1, presence of 500 μM Vit E), “+ + (The sign + means that 80 % cells were positive and contained at least 5 vesicles)”; in assay [17] (RPMI 8226, absence of Vit E) it was “+ + (The sign + means that 80 % cells were positive and contained at least 5 vesicles)”; in assay [17] (setting [19]) it was “+ + (The sign + means that 80 % cells were positive and contained at least 5 vesicles)”. Besides, the MLB result was “+ + (The sign + means that 80 % cells were positive and contained at least 5 vesicles)” in assay [8] (LP-1, absence of Vit E); “+ + (The sign + means that 80 % cells were positive and contained at least 5 vesicles)” in [8] (LP-1, presence of 500 μM Vit E); “+ + (The sign + means that 80 % cells were positive and contained at least 5 vesicles)” in assay [17] (RPMI 8226, absence of Vit E); “+ + (The sign + means that 80 % cells were positive and contained at least 5 vesicles)” in assay [17] (setting [19]). The UV result in assay [8] (LP-1, absence of Vit E) was “+ (The sign + means that 80 % cells were positive and contained at least 5 vesicles)”; in assay [8] (LP-1, presence of 500 μM Vit E), “− (otherwise they were considered as negative (-))”; in [17] (RPMI 8226, absence of Vit E), “+ (The sign + means that 80 % cells were positive and contained at least 5 vesicles)”; in assay [17] (setting [19]), “− (otherwise they were considered as negative (-))”. For the same compound, the “affinity for the AEBS” value in [9] is “high affinity”. Also, the IC50 (commonly the concentration that inhibits the measured activity by half) in assay [10] is 0.632 ± 0.022 µM; in [16], 0.727 ± 0.031 µM. For the same compound, the Desmosterol in assay [11] was 46.4 percent by the weight of total sterol; in [12] it was 41.5 percent by the weight of total sterol. The figures for the Zymostenol in assay [11] and in assay [12] were 1.7 percent by the weight of total sterol and 1.8 percent by the weight of total sterol, respectively. The inhibition constant (Ki) (commonly the dissociation constant of the complex between target and ligand, obtained from inhibition or displacement) worked out at 0.0274 ± 0.0031 µM in [13] and 0.0294 ± 0.0055 µM in assay [15]. In assay [14], the free sterol accumulated entry is given as “accumulation of desmosterol”. For the same compound, the “cell death (viable cells, MTT assay)” value in [5] is on record as “cell death that was strictly caspase-independent”. Besides, the “sensitivity to dexamethasone (MTT assay)” value in [5] is listed as “restores the sensitivity”.

In the case of `CC/C(=C(\c1ccccc1)c1ccc(OCCN(C)C)cc1)c1ccccc1` [Tam, Tamoxifen], the “5,6-EC” value in assay [6] (LP-1, absence of Vit E) was “+”; in assay [6] (LP-1, presence of 500 μM Vit E), “−”; in [7] (RPMI 8226, absence of Vit E) it was “+”; in assay [7] (setting [19]), “−”. For the same compound, the AV entry in [8] (LP-1, absence of Vit E) is “+ + (The sign + means that 80 % cells were positive and contained at least 5 vesicles)”; in [8] (LP-1, presence of 500 μM Vit E), “+ + (The sign + means that 80 % cells were positive and contained at least 5 vesicles)”; in assay [17] (RPMI 8226, absence of Vit E), “+ + (The sign + means that 80 % cells were positive and contained at least 5 vesicles)”; in assay [17] (setting [19]) it was “+ + (The sign + means that 80 % cells were positive and contained at least 5 vesicles)”. The MLB entry was “+ + (The sign + means that 80 % cells were positive and contained at least 5 vesicles)” in [8] (LP-1, absence of Vit E); “+ + (The sign + means that 80 % cells were positive and contained at least 5 vesicles)” in [8] (LP-1, presence of 500 μM Vit E); “+ + (The sign + means that 80 % cells were positive and contained at least 5 vesicles)” in assay [17] (RPMI 8226, absence of Vit E); “+ + (The sign + means that 80 % cells were positive and contained at least 5 vesicles)” in [17] (setting [19]). Moreover, the UV entry in [8] (LP-1, absence of Vit E) is “+ (The sign + means that 80 % cells were positive and contained at least 5 vesicles)”; in [8] (LP-1, presence of 500 μM Vit E) it was “− (otherwise they were considered as negative (-))”; in [17] (RPMI 8226, absence of Vit E), “+ (The sign + means that 80 % cells were positive and contained at least 5 vesicles)”; in assay [17] (setting [19]) it was “− (otherwise they were considered as negative (-))”. In assay [9], the “affinity for the AEBS” value is given as “high affinity”. Besides, the “ChEH activity, conversion of 5,6-EC into CT by TLC” value in assay [18] is reported as “ChEH activity was inhibited”. Also, the Desmosterol in assay [11] and in assay [12] was 0.2 percent by the weight of total sterol each time. Besides, the Zymostenol in assay [11] is 38.2 percent by the weight of total sterol; in [12], 35.9 percent by the weight of total sterol. Further, the free sterol accumulated result in assay [14] was “accumulation zymostenol”.

As to `C[C@@H]1C[C@H]2[C@@H]3CCC4=CC(=O)C=C[C@]4(C)[C@@]3(F)[C@@H](O)C[C@]2(C)[C@@]1(O)C(=O)CO` [dexamethasone], the “sensitivity to dexamethasone (MTT assay)” value in assay [5] is recorded as “resistant”.

On to `CO[C@H]1C[C@@H]2CC[C@@H](C)[C@@](O)(O2)C(=O)C(=O)N2CCCC[C@H]2C(=O)O[C@H]([C@H](C)C[C@@H]2CC[C@@H](OCCO)[C@H](OC)C2)CC(=O)[C@H](C)/C=C(\C)[C@@H](O)[C@@H](OC)C(=O)[C@H](C)C[C@H](C)/C=C/C=C/C=C/1C` [everolimus], for which the “cell death (viable cells, MTT assay)” value in assay [5] is recorded as “induced cell death”.
